In patent US20240109917A1 (ACTELION PHARMACEUTICALS LTD, priority 2020, published 2024):

Assays:
[1] = target: Tb-labeled inactive PDGFRβ (Homo sapiens (Human), UniProt P09619); test: PDGFRβ LanthaScreen Assay; type: binding; details: read-out: PDGFR Lantha IC50
VEGFR2, unphosphorylated = VEGFR2, unphosphorylated (Homo sapiens (Human), UniProt P35968); test: VEGFR ADP GLO Assay; type: biochemical
VEGFR2, unphosphorylated, sequence (P35968 20-1356): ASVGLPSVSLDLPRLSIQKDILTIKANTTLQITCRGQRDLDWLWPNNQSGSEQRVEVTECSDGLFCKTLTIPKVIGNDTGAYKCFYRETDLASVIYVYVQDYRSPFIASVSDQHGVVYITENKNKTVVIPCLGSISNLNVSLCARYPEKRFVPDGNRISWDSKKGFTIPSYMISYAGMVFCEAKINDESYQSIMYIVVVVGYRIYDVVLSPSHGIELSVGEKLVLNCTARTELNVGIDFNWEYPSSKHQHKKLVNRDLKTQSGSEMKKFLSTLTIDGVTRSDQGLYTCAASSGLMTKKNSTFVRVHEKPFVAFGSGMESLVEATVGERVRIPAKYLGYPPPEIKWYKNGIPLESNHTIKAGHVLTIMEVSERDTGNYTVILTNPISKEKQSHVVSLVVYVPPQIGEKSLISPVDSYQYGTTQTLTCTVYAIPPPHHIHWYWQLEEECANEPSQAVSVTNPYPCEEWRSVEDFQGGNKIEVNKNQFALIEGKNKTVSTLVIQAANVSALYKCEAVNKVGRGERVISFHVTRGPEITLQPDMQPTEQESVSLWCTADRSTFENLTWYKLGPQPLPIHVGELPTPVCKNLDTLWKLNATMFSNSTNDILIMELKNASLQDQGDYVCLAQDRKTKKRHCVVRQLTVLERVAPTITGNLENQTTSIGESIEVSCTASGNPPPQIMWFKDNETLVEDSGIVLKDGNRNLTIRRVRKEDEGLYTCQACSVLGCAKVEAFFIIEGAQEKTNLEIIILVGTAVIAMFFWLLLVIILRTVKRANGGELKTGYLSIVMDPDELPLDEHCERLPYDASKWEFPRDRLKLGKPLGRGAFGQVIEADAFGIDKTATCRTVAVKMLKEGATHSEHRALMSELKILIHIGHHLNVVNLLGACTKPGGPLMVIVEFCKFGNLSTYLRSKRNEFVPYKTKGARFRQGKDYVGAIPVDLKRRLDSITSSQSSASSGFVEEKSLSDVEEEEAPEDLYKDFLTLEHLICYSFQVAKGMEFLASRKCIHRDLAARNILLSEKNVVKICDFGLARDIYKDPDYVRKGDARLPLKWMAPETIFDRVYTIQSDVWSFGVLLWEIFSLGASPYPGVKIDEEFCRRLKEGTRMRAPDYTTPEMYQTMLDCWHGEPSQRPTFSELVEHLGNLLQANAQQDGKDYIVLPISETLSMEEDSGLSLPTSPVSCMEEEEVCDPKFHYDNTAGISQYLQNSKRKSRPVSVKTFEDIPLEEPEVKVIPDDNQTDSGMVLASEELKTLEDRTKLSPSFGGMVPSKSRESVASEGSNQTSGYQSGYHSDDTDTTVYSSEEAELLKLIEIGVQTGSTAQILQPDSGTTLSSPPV

Tb-labeled inactive PDGFRβ, sequence (P09619 33-1106): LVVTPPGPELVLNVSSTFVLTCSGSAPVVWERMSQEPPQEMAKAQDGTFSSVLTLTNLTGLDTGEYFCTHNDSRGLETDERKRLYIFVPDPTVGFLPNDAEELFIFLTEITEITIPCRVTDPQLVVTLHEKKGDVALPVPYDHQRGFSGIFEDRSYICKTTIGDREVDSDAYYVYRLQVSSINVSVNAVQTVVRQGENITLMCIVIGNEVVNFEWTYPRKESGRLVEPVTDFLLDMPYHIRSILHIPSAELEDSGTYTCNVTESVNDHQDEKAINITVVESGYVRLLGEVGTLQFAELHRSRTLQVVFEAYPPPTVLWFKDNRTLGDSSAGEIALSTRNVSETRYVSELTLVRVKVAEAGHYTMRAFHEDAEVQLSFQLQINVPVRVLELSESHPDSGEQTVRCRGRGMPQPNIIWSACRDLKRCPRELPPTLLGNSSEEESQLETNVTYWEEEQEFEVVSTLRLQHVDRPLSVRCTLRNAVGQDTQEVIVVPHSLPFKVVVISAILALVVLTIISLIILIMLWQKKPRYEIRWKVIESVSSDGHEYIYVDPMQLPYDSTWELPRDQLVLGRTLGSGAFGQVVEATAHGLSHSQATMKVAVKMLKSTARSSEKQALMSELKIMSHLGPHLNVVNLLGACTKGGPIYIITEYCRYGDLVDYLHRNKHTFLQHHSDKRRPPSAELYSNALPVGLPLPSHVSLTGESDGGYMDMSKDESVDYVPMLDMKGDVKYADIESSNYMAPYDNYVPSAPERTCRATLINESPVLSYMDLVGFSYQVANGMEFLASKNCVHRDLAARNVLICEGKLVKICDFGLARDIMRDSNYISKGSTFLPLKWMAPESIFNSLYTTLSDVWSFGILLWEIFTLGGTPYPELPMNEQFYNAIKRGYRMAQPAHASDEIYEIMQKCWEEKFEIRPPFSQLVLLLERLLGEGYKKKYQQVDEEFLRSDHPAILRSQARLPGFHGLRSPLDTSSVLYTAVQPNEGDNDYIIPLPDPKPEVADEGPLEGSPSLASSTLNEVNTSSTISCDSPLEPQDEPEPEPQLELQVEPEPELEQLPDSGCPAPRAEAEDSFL

| Structure (SMILES) | IC50 [1] [nM] | IC50 (VEGFR2, unphosphorylated) [µM] |
| --- | --- | --- |
| COCCn1cc(-c2cn3ncc(C(=O)Nc4cc(NC(=O)CCN5CC6CCC5CC6)cnc4C)c3s2)cn1 [Example 100, N-(5-(3-(2-azabicyclo[2.2.2]octan-2-yl)propanamido)-2-methylpyridin-3-yl)-2-(1-(2-methoxyethyl)-1H-pyrazol-4-yl)pyrazolo[5,1-b]thiazole-7-carboxamide] | 7.5 | > 7.5 |
| COCCn1cc(-c2cn3ncc(C(=O)Nc4cc(C(=O)NCCN5CC6CCC5CC6)cnc4C)c3s2)cn1 [Example 142, N-(5-((2-(2-azabicyclo[2.2.2]octan-2-yl)ethyl)carbamoyl)-2-methylpyridin-3-yl)-2-(1-(2-methoxyethyl)-1H-pyrazol-4-yl)pyrazolo[5,1-b]thiazole-7-carboxamide] | 4.2 | > 7.5 |
| Cc1ncc(NC(=O)CCN2CCCC23CC3)cc1NC(=O)c1cnn2cc(-c3cnn(C)c3)sc12 [Example 98] | 2.9 | > 7.5 |
| Cc1ncc(C(=O)NCCN2CCCC23COC3)cc1NC(=O)c1cnn2cc(-c3cn(C)nc3C)sc12 [Example 176, N-(5-((2-(2-oxa-5-azaspiro[3.4]octan-5-yl)ethyl)carbamoyl)-2-methylpyridin-3-yl)-2-(1,3-dimethyl-1H-pyrazol-4-yl)pyrazolo[5,1-b]thiazole-7-carboxamide] | 3.1 | > 7.5 |
| Cc1ncc(NC(=O)NCCC2CCN(C)CC2)cc1NC(=O)c1cnn2cc(-c3cnn(C)c3)sc12 [Example 108, 2-(1-methyl-1H-pyrazol-4-yl)-N-(2-methyl-5-(3-(2-(1-methylpiperidin-4-yl)ethyl)ureido)pyridin-3-yl)pyrazolo[5,1-b]thiazole-7-carboxamide] | 490 | > 2.5 |
| Cc1ncc(C(=O)NCCN2CCOCC23CCC3)cc1NC(=O)c1cnn2cc(-c3cnn(C)c3)sc12 [Example 117, N-(5-((2-(8-oxa-5-azaspiro[3.5]nonan-5-yl)ethyl)carbamoyl)-2-methylpyridin-3-yl)-2-(1-methyl-1H-pyrazol-4-yl)pyrazolo[5,1-b]thiazole-7-carboxamide] | 2.3 | > 7.5 |
| Cc1ncc(C(=O)NCCN2CCC3(CC3)C2)cc1NC(=O)c1cnn2cc(-c3cn(C)nc3C)sc12 [Example 177, N-(5-((2-(5-azaspiro[2.4]heptan-5-yl)ethyl)carbamoyl)-2-methylpyridin-3-yl)-2-(1,3-dimethyl-1H-pyrazol-4-yl)pyrazolo[5,1-b]thiazole-7-carboxamide] | 2.6 | > 7.5 |
| Cc1ncc(C(=O)NCCN2CC(C)(C)C2)cc1NC(=O)c1cnn2cc(-c3cnn(C)c3)sc12 [Example 126, N-(5-((2-(3,3-dimethylazetidin-1-yl)ethyl)carbamoyl)-2-methylpyridin-3-yl)-2-(1-methyl-1H-pyrazol-4-yl)pyrazolo[5,1-b]thiazole-7-carboxamide] | 10.3 | > 7.5 |
| Cc1ncc(C(=O)NCCN2CCCC2(C)C)cc1NC(=O)c1cnn2cc(-c3ccc(=O)[nH]n3)sc12 [Example 141, N-(5-((2-(2,2-dimethylpyrrolidin-1-yl)ethyl)carbamoyl)-2-methylpyridin-3-yl)-2-(6-oxo-1,6-dihydropyridazin-3-yl)pyrazolo[5,1-b]thiazole-7-carboxamide] | 18.6 | > 7.5 |
| Cc1ncc(C(=O)NCCN2CCC3(CC3)C2)cc1NC(=O)c1cnn2cc(-c3cccnc3)sc12 [Example 159, N-(5-((2-(5-azaspiro[2.4]heptan-5-yl)ethyl)carbamoyl)-2-methylpyridin-3-yl)-2-(pyridin-3-yl)pyrazolo[5,1-b]thiazole-7-carboxamide] | 21.6 | > 7.5 |
| CC(=O)Nc1cncc(-c2cn3ncc(C(=O)Nc4cc(C(=O)NCCN5CC6CCC5CC6)cnc4C)c3s2)c1 [Example 147, N-(5-((2-(2-azabicyclo[2.2.2]octan-2-yl)ethyl)carbamoyl)-2-methylpyridin-3-yl)-2-(5-acetamidopyridin-3-yl)pyrazolo[5,1-b]thiazole-7-carboxamide] | 6.9 | > 7.5 |
| Cc1ncc(C(=O)NCCN2CC3COCC3C2)cc1NC(=O)c1cnn2cc(-c3cnn(C)c3)sc12 (stereo not shown) [Example 112, 2-(1-methyl-1H-pyrazol-4-yl)-N-(2-methyl-5-((2-(tetrahydro-1H-furo[3,4-c]pyrrol-5 (3H)-yl)ethyl)carbamoyl)pyridin-3-yl)pyrazolo[5,1-b]thiazole-7-carboxamide] | 12.6 | > 7.5 |
| Cc1ncc(C(=O)NCCN2CCC3(CCOC3)C2)cc1NC(=O)c1cnn2cc(-c3cnn(C)c3)sc12 (stereo not shown) [Example 116, N-(5-((2-(2-oxa-7-azaspiro[4.4]nonan-7-yl)ethyl)carbamoyl)-2-methylpyridin-3-yl)-2-(1-methyl-1H-pyrazol-4-yl)pyrazolo[5,1-b]thiazole-7-carboxamide] | 12.7 | > 7.5 |
| Cc1ncc(C(=O)NCCN2CCCC2(C)C)cc1NC(=O)c1cnn2cc(-c3cn(C)cn3)sc12 [Example 163, N-(5-((2-(2,2-dimethylpyrrolidin-1-yl)ethyl)carbamoyl)-2-methylpyridin-3-yl)-2-(1-methyl-1H-imidazol-4-yl)pyrazolo[5,1-b]thiazole-7-carboxamide] | 3.9 | > 7.5 |
| CC(=O)N1CCN(CCNC(=O)c2cnc(C)c(NC(=O)c3cnn4cc(-c5cnn(C)c5)sc34)c2)CC1 [Example 129, N-(5-((2-(4-acetylpiperazin-1-yl)ethyl)carbamoyl)-2-methylpyridin-3-yl)-2-(1-methyl-1H-pyrazol-4-yl)pyrazolo[5,1-b]thiazole-7-carboxamide] | 87.1 | > 7.5 |
| Cc1ncc(NC(=O)CCN2CCC3(CC2)CC3)cc1NC(=O)c1cnn2cc(-c3cnn(C)c3)sc12 [Example 97, N-(5-(3-(6-azaspiro[2.5]octan-6-yl)propanamido)-2-methylpyridin-3-yl)-2-(1-methyl-1H-pyrazol-4-yl)pyrazolo[5,1-b]thiazole-7-carboxamide] | 6.4 | > 7.5 |
| Cc1ncc(C(=O)NCCN2CCC3(CCC3)C2)cc1NC(=O)c1cnn2cc(-c3cnn(C)c3)sc12 [Example 113, N-(5-((2-(6-azaspiro[3.4]octan-6-yl)ethyl)carbamoyl)-2-methylpyridin-3-yl)-2-(1-methyl-1H-pyrazol-4-yl)pyrazolo[5,1-b]thiazole-7-carboxamide] | 1.4 | > 7.5 |
| Cc1ncc(C(=O)NCCN2CC3CC(C3)C2)cc1NC(=O)c1cnn2cc(-c3cnn(C)c3)sc12 [Example 5, N-(5-((2-(3-azabicyclo[3.1.1]heptan-3-yl)ethyl)carbamoyl)-2-methylpyridin-3-yl)-2-(1-methyl-1H-pyrazol-4-yl)pyrazolo[5,1-b]thiazole-7-carboxamide] | 5.8 | > 7.5 |
| Cc1ncc(C(=O)NCCN2CCOCC23CC3)cc1NC(=O)c1cnn2cc(-c3cnn(C)c3)sc12 [Example 110, N-(5-((2-(7-oxa-4-azaspiro[2.5]octan-4-yl)ethyl)carbamoyl)-2-methylpyridin-3-yl)-2-(1-methyl-1H-pyrazol-4-yl)pyrazolo[5,1-b]thiazole-7-carboxamide] | 5.7 | 0.664 |
| Cc1ncc(C(=O)NCCN2CCC(F)(F)C2)cc1NC(=O)c1cnn2cc(-c3cnn(C)c3)sc12 [Example 120, N-(5-((2-(3,3-difluoropyrrolidin-1-yl)ethyl)carbamoyl)-2-methylpyridin-3-yl)-2-(1-methyl-1H-pyrazol-4-yl)pyrazolo[5,1-b]thiazole-7-carboxamide] | 4.5 | > 7.5 |
| Cc1ncc(C(=O)NCCN2CC3CCC2CC3)cc1NC(=O)c1cnn2cc(-c3cnn(C4COC4)c3)sc12 [Example 144, N-(5-((2-(2-azabicyclo[2.2.2]octan-2-yl)ethyl)carbamoyl)-2-methylpyridin-3-yl)-2-(1-(oxetan-3-yl)-1H-pyrazol-4-yl)pyrazolo[5,1-b]thiazole-7-carboxamide] | 3.6 | > 7.5 |
| Cc1ncc(C(=O)NCCN2CC(F)(F)C2)cc1NC(=O)c1cnn2cc(-c3cnn(C)c3)sc12 [Example 125, N-(5-((2-(3,3-difluoroazetidin-1-yl)ethyl)carbamoyl)-2-methylpyridin-3-yl)-2-(1-methyl-1H-pyrazol-4-yl)pyrazolo[5,1-b]thiazole-7-carboxamide] | 5.3 | > 7.5 |
| COCCn1cc(-c2cn3ncc(C(=O)Nc4cc(C(=O)NCCN5CC6(CCC6)C5)cnc4C)c3s2)cn1 [Example 168, N-(5-((2-(2-azaspiro[3.3]heptan-2-yl)ethyl)carbamoyl)-2-methylpyridin-3-yl)-2-(1-(2-methoxyethyl)-1H-pyrazol-4-yl)pyrazolo[5,1-b]thiazole-7-carboxamide] | 17.4 | > 7.5 |
| Cc1ncc(C(=O)NCCN2CCC23CCC3)cc1NC(=O)c1cnn2cc(-c3cnn(C)c3C)sc12 [Example 169, N-(5-((2-(1-azaspiro[3.3]heptan-1-yl)ethyl)carbamoyl)-2-methylpyridin-3-yl)-2-(1,5-dimethyl-1H-pyrazol-4-yl)pyrazolo[5,1-b]thiazole-7-carboxamide] | 2.8 | > 7.5 |
| COCCn1nc(C)c(-c2cn3ncc(C(=O)Nc4cc(NC(=O)CCN5CCC6(CC6)C5)cnc4C)c3s2)c1C [Example 103, N-(5-(3-(5-azaspiro[2.4]heptan-5-yl)propanamido)-2-methylpyridin-3-yl)-2-(1-(2-methoxyethyl)-3,5-dimethyl-1H-pyrazol-4-yl)pyrazolo[5,1-b]thiazole-7-carboxamide] | 8.6 | > 7.5 |
| Cc1ncc(C(=O)NCCN2CC3CCC2CC3)cc1NC(=O)c1cnn2cc(-c3cnn(CS(C)(=O)=O)c3)sc12 [Example 143, N-(5-((2-(2-azabicyclo[2.2.2]octan-2-yl)ethyl)carbamoyl)-2-methylpyridin-3-yl)-2-(1-((methylsulfonyl)methyl)-1H-pyrazol-4-yl)pyrazolo[5,1-b]thiazole-7-carboxamide] | 5.3 | > 7.5 |
